{
  "source": "patent US20240252670A1",
  "about": "“ANTIBODY DRUG CONJUGATE, PREPARATION METHOD THEREFOR AND APPLICATION THEREOF” (TSINGHUA UNIVERSITY, priority 2021, published 2024)",
  "key": {"[1]": {"test_system": "MC38 tumor", "assay": "Anti-tumor activity and survival in MC38 mouse tumor model", "assay_type": "in vivo", "details": "for inhibitory activity against MC38 tumor growth: MC38 mice, i.p., antibody drugs 150 μg per mouse, D18 25 μg per mouse, schedule Table 1", "text": "(§1) A. Treatment with ADC HE-S2, single administration of anti-PD-L1 antibody, D18, or anti-PD-L1 THIOMAB, and anti-PD-L1 antibody/D18 combined administration for inhibitory activity against mouse MC38 tumor growth. B. Whole animal survival study. The ordinate of the curve represents the percentage of tumor-bearing mice that remained alive after different days, and the abscissa thereof represents the number of experimental days. C. Treatment with ADC HE-S2, single administration of anti-PD-L1 antibody, D18, or anti-PD-L1 THIOMAB, and anti-PD-L1 antibody/D18 combined administration for inhibitory activity against mouse MC38 tumor growth. Student's t test was used to compare significant differences between the groups, and p<0.001 is represented by ***.\nTo verify the anti-cancer activity of ADC HE-S2, the inventors first made a mouse model with MC38. After the tumor was loaded, a visible tumor could be observed on the mouse surface for about one week. When the mean tumor tissue volume of the mice reached 100 mm^3, the mice were randomly grouped as follows according to the final type of drug administered: IgG isotype control antibody group (abbreviated as IgG), anti-PD-L1 antibody group (anti-PD-L1), anti-PD-L1 THIOMAB group (Thiomab), D18 group (D18), D18/anti-PD-L1 antibody combination treatment group (anti-PD-L1 & D18), and ADC HE-S2 group (ADC HE-S2), with 7-8 mice per group. The IgG isotype control antibody group, the anti-PD-L1 antibody (i.e., avelumab as described in Example 2) group, and the anti-PD-L1 THIOMAB (i.e., mutant antibody prepared in Example 2) group were administered twice a week via intraperitoneal injection of 150 μg per mouse for each time. The D18 group was administered twice a week via intraperitoneal injection of 25 μg per mouse for each time. In the D18/anti-PD-L1 antibody combination treatment group, the anti-PD-L1 antibody was dosed twice a week, 150 μg per mouse for each time; the D18 was dosed […], 25 μg per mouse for each time; in the ADC HE-S2 group, ADC HE-S2 was dosed once a week via intraperitoneal injection of 150 μg per mouse for each time; the anti-PD-L1 antibody was dosed once a week, staggered from the administration of the ADC, via intraperitoneal injection of 150 μg per mouse for each time.\n(§2) Dosage: Antibody drugs, administered 150 μg per mouse for each time, and D18, administered 25 μg per mouse for each time. - means no administration on the day. * Only mice with MC38 tumor model were allowed to be administered until the 24th day, and mice with B16 tumor model were no longer administered after the 21st day."}, "[2]": {"test_system": "B16 melanoma", "assay": "Anti-tumor activity in B16 melanoma mouse model", "assay_type": "in vivo", "details": "B16 mice, i.p.; antibody drugs 150 μg, D18 25 μg per mouse; dosing to day 21", "text": "as §1\nB16 melanoma is a tumor with low PD-L1 level and certain drug resistance to PD-1/PD-L1 blocking treatment. As a result, as expected by the inventors, the inhibitory effect of each drug on B16 melanoma was reduced relative to the MC38 tumor.\nas §2"}, "[3]": {"assay": "Effect of drug treatment on body weight of healthy mice", "assay_type": "in vivo, mouse", "details": "antibody drugs 150 μg, D18 25 μg per dose", "procedure": "Mice were treated with ADC HE-S2, anti-PD-L1 antibody+D18 in combination, anti-PD-L1 antibody alone, D18 alone, and isotype IgG, and their body weight variations were recorded. The time of administration for each drug is indicated by the arrow. Student's t test was used to compare significance differences between groups, wherein p<0.05 is represented by *. p<0.01 is represented by **, and no significance difference is represented by ns.\nThen, the inventors examined the effect of each group of drug treatment on the body weight of mice in a mouse model to determine the toxic and side effects of the drugs used, and the results are shown in FIG. 17. Healthy mice were divided into an ADC group, an anti-PD-L1 antibody+D18 group, an anti-PD-L1 antibody group, a D18 group and an IgG group according to the administration, with 5 mice per group. The mode and dose of administration for each group of mice were the same as those in the mouse tumor model experiment: in the ADC group, ADC HE-S2 was dosed once a week, and the anti-PD-L1 antibody was […], 150 μg for each time; D18 was dosed once a week, 25 μg for each time; the anti-PD-L1 antibody and the IgG isotype antibody were dosed twice a week, 150 μg for each time."}, "[4]": {"target": "murine PD-L1 (Mus musculus, UniProt Q9EP73)", "sequence (Q9EP73 19-290)": "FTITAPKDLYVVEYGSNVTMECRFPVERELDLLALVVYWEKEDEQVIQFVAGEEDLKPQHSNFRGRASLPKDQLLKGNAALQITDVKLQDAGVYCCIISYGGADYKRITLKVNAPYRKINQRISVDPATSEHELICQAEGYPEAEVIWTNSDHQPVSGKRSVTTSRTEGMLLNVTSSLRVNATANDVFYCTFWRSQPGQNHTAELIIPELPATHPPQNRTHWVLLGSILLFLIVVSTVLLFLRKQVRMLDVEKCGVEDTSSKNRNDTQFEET", "details": "Deng et al., 2016; cited from earlier work"}},
  "data": [
    {"compound": "CCCCNc1nc(N)nc2ccc(Cc3ccc(CN(C)C)cc3)nc12", "note": "[D18, N^4-butyl-6-(4-((dimethylamino)methyl)benzyl)pyridine[3,2-d]pyriproxyfen-2,4-diamine]", "values": [
      {"measurement": "inhibitory activity against MC38 tumor growth", "setting": "[1]", "value": "slightly superior to the efficacy of the IgG isotype antibody"},
      {"measurement": "survival rate of mice", "setting": "[1]; until day 70", "value": "1/8"},
      {"measurement": "inhibitory effect on B16 melanoma", "setting": "[2]", "value": "almost comparative to that of the IgG isotype antibody"},
      {"measurement": "body weight change of the mice after administration", "setting": "[3]", "value": "some decreases in body weight"}
    ]},
    {"compound": "anti-PD-L1 antibody: fully humanized IgG1 type monoclonal anti-PD-L1 antibody drug avelumab [reference compound]", "values": [
      {"measurement": "cross-reaction with murine PD-L1", "setting": "[4]", "value": "cross-react with murine PD-L1"},
      {"measurement": "inhibitory activity against MC38 tumor growth", "setting": "[1]", "value": "slightly superior to the efficacy of the IgG isotype antibody"},
      {"measurement": "inhibitory effect on B16 melanoma", "setting": "[2]", "value": "almost comparative to that of the IgG isotype antibody"},
      {"measurement": "body weight change of the mice after administration", "setting": "[3]", "value": "almost consistent with that of the blank control IgG group"}
    ]}
  ]
}
